pIC50: −log10 of the molar value.
Experiments:
Aromatase = target: T1, Aromatase (Homo sapiens, UniProt P11511)
T1 sequence (P11511 whole entry): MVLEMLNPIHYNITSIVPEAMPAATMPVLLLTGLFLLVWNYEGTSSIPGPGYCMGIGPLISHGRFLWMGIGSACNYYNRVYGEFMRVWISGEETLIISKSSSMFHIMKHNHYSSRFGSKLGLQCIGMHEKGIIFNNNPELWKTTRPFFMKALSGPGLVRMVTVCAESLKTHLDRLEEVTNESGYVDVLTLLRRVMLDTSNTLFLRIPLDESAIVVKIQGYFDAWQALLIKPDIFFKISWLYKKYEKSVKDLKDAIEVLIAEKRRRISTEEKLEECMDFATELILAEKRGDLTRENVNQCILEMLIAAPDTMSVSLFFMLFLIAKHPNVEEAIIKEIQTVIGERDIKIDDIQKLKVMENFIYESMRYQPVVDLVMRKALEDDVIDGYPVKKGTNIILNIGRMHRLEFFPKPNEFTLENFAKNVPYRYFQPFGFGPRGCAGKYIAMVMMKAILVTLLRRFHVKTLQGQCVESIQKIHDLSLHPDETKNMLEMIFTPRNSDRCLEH
Description: Inhibition of aromatase (unknown origin)

[1] = Antiproliferative activity against HEK293 cells assessed as cell viability at 10^-4 M after 6 hrs by MTT assay relative to control; format: cell-based; details: human, read-out: Activity
MCF7 = assay: Antiproliferative activity against human MCF7 cells assessed as cell viability at 10^-4 M after 6 hrs by MTT assay relative to control; format: functional; details: MCF7, 6 h, read-out: Activity

| Structure (SMILES) | pIC50 (Aromatase) | viability at 6 h, 100 µM [1] [%] | viability at 100 µM (MCF7) [%] |
| --- | --- | --- | --- |
| c1cncc(-c2csc(-c3cccnc3)n2)c1 | 8.40 | – | – |
| c1cncc(-c2nsc(-c3cccnc3)n2)c1 | 6.62 | – | – |
| c1ccc(-c2nsc(-c3ccccc3)n2)cc1 | < 4.30 | – | – |
| COc1ccccc1-c1csc(-c2ncccn2)n1 | – | 87 | 130 |
| c1cnc(-c2nc(-c3ccco3)cs2)nc1 | – | 59 | 76 |
| COc1ccc(-c2csc(-c3ncccn3)n2)cc1 | – | 101 | 127 |
| Clc1cccc(-c2csc(-c3ncccn3)n2)c1 | – | 107 | 86.9 |
| c1ccc(-c2csc(-c3ncccn3)n2)nc1 | – | 101 | 74.2 |
| c1cnc(-c2nc(-c3cc4ccccc4s3)cs2)nc1 | – | 83.5 | 120 |
| Oc1ccc(-c2csc(-c3ncccn3)n2)cc1 | – | 94 | 227 |
| Oc1ccccc1-c1csc(-c2ncccn2)n1 | – | 131 | 129 |
| c1cnc(-c2nc(-c3ccncc3)cs2)nc1 | – | 101 | 76.6 |
| c1cnc(-c2nc(-c3cccs3)cs2)nc1 | – | 77 | 136 |
| Oc1cccc(-c2csc(-c3ncccn3)n2)c1 | – | 113 | 112 |
| Cn1c(-c2csc(-c3ncccn3)n2)nc2ccccc21 | – | 102 | 128 |
| Cc1ccc(O)c(-c2csc(-c3ncccn3)n2)c1 | – | 91.8 | 195 |
| c1cnc(-c2nc(-c3nc4ccccc4s3)cs2)nc1 | – | 117 | 60.7 |
| c1cnc(-c2nc(-c3cccnc3)cs2)nc1 | – | 89 | 75.5 |
| Oc1ccc(Cl)cc1-c1csc(-c2ncccn2)n1 | – | 78 | 162 |
| COc1cccc(-c2csc(-c3ncccn3)n2)c1 | – | 95 | 137 |
| c1cnc(-c2nc(-c3cc4ccccc4o3)cs2)nc1 | – | 108 | 131 |
| Clc1ccccc1-c1csc(-c2ncccn2)n1 | – | 89.4 | 125 |
| COc1ccc(O)c(-c2csc(-c3ncccn3)n2)c1 | – | 81.3 | 208 |
| Clc1ccc(-c2csc(-c3ncccn3)n2)cc1 | – | 101 | 146 |

Reference: ChEMBL document CHEMBL4219133, “Studies on non-steroidal inhibitors of aromatase enzyme; 4-(aryl/heteroaryl)-2-(pyrimidin-2-yl)thiazole derivatives” (Bioorg Med Chem, 2018)
